What was measured:
[1] = test system: NCI-H460, NCI-H460/R, DLD1, DLD1-TxR cells; assay: MTT assay, grouping of inhibitors by IC50 over the cancer cell lines; type: cell-based; settings: Homo sapiens, Figure 2b, read-out: IC50 values (grouping for Pearson correlation)
Procedure: When the IC50 values obtained by the MTT assay were compared to Hsp90 affinity binding IC50 values (Table 1), a positive Pearson correlation (r > 0.5) was found for all cancer cell lines (Figure 2b).
Cell viability was assessed by the MTT assay (AppliChem GmbH, Darmstadt, Germany). Cells grown in 25 cm^2 tissue flasks were trypsinized and 1000 cells/well were seeded into flat-bottomed 96-well tissue culture plates and incubated overnight. Subsequently, the cells were treated with increasing concentrations of Hsp90 inhibitors for 72 h: compound 3 (0.1–2.5 µM), compound 4 (0.25–5 µM), compound 5 (0.5–25 µM), compound 6 (50–1000 nM), compound 7 (10–250 nM), compound 8 (0.25–5 µM), compound 9 (10–250 nM), compound 10 (0.5–25 µM), compound 13 (0.5–10 µM), compound 14 (1–25 µM), and compound 15 (10–250 nM). […] After treatment, MTT was added to each well in a final concentration of 0.2 mg/mL for 4 h. Formazan product was dissolved in 200 µl of DMSO, and the absorbance was measured at 540 nm using an automatic LKB 5060-006 Micro Plate Reader (Vienna, Austria). IC50 value was defined as a concentration of the drug that inhibited cell growth by 50% and was calculated by nonlinear regression analysis using GraphPad Prism 6.0 for Windows (La Jolla, CA, USA). Relative selectivity towards cancer cells was calculated as a relation between IC50 value obtained in MRC-5 cells and an average IC50 value from four tested cancer cell lines.

[2] = test system: P-gp expression; assay: Flow cytometric analysis of P-gp expression; type: cell-based, human; settings: 72 h; for Change in P-gp expression, DLD1 / Change in P-gp expression, NCI-H460: 5 µM 5, 200 nM 7, 100 nM 9, 10 nM TQ, 50 nM DOX, 50 nM PTX
Procedure: P-glycoprotein expression level in NCI-H460, NCI-H460/R, DLD1, and DLD1-TxR and cells was measured by flow cytometry. All cell lines were seeded in adherent 6-well plates and treated with Hsp90 inhibitors for 72 h at the following concentrations: 5 µM compound 5, 200 nM compound 7, 100 nM compound 9 (NCI-H460 and DLD1), and 10 µM compound 5, 500 nM compound 7, 500 nM compound 9 (NCI-H460/R and DLD1-TxR). Cells were also treated with 10 nM TQ, a non-competitive P-gp inhibitor, which served as a positive control. In addition, sensitive cells (NCI-H460 and DLD1) were treated with 50 nM DOX and 50 nM PTX that served as positive controls for the induction of P-gp expression. Then, cells were collected by trypsinization, washed with PBS, and directly immunostained by FITC-conjugated anti-P-gp antibody according to the manufacturer’s protocol. The samples were kept in the dark until the analysis on CyFlow Space Partec flow cytometer (Sysmex Partec GmbH, Görlitz, Germany). The fluorescence of FITC-conjugated anti-P-gp was detected on fluorescence channel 1 (FL1-H) at 530 nm. A minimum of 10,000 events were collected for each sample (the gate excluded cell debris and dead cells) and the obtained results were analyzed with Summit software v4.3 (Dako Colorado Inc., Fort Collins, CO, USA).

[3] = test system: NCI-H460/R cells; assay: Combined treatment of compound 5 with DOX, MTT, median effect analysis; type: cell-based, human; settings: for Relative Reversal: DOX resistance; for IC50: Homo sapiens, NCI-H460, 72 h
Procedure: (§1) The combined effects of compound 5 with DOX as well as with PTX were studied in NCI-H460/R and DLD1-TxR cells, respectively, by MTT assay. In simultaneous treatments that lasted 72 h in NCI-H460/R cells, three concentrations of compound 5 (2.5, 5, and 10 µM) were combined with increasing concentrations of DOX (250, 500 and 1000 nM), while in DLD1-TxR cells different concentrations of compound 5 (1, 2.5, and 5 µM) were combined with increasing concentrations of PTX (100, 250 and 500 nM). The nature of the interaction between Hsp90 inhibitors and DOX/PTX was analyzed with CalcuSyn software v1.1 (Biosoft, Cambridge, UK) that uses the Combination Index method based on the multiple drug effect equation [54]. Three data points were used for each single drug in each experiment. The non-constant ratio combination was chosen to assess the effect of both drugs in combination. The results are presented in a fraction-affected CI graph. Values of CI < 1 point to a pronounced additive effect or synergism (the smaller value, the greater the degree of synergy). A value of CI = 1 indicates an additive effect, while values of CI > 1 point to an antagonistic effect.

[4] = test system: DLD1-TxR cells; assay: Combined treatment of compound 5 with PTX, MTT, median effect analysis; type: cell-based, human; settings: PTX resistance
Procedure: as §1

[5] = biological target: P-gp (Homo sapiens, UniProt P08183); assay: P-gp ATPase activity assay (Pgp-Glo); type: biochemical; parameters: purchased Promega; settings: 5: 5, 10, 20 µM; 7 and 9: 100, 250, 500 nM; Figure 5a
Chain of P-gp (P08183 whole entry): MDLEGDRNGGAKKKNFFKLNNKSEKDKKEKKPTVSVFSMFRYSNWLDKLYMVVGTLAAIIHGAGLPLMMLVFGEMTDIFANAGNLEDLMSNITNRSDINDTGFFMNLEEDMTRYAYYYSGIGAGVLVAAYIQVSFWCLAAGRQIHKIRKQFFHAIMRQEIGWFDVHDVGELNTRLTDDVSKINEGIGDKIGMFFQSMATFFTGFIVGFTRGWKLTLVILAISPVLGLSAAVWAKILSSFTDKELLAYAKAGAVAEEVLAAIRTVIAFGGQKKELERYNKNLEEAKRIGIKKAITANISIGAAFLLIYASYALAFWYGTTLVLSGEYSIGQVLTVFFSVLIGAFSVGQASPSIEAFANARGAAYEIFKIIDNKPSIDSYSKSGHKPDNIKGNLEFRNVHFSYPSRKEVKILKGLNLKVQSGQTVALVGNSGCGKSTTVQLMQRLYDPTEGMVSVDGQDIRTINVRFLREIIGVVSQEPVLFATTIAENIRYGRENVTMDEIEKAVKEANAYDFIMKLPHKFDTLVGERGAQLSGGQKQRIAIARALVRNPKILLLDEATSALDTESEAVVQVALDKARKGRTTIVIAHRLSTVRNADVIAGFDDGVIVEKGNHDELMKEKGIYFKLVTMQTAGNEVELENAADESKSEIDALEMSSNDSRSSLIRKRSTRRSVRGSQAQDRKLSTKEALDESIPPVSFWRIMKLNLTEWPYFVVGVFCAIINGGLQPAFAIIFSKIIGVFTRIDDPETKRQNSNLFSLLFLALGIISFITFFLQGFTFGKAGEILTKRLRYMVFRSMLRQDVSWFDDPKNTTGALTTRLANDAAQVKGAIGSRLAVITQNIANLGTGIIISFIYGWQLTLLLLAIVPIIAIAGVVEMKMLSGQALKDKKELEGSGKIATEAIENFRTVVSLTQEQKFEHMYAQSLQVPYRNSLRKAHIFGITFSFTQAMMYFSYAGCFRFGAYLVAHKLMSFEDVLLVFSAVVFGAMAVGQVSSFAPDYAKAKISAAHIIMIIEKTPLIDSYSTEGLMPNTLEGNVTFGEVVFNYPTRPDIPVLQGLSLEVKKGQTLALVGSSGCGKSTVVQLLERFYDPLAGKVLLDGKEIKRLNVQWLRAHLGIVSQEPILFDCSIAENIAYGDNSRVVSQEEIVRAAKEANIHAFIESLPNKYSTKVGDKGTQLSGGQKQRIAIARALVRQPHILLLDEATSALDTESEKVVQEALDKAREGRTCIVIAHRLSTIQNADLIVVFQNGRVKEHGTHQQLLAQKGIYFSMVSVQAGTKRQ
Procedure: P-gp relies on the ATP hydrolysis energy to extrude the substrate outside the cell and compounds that interact with P-gp can stimulate or inhibit its ATPase activity. Compounds that are P-gp substrates usually stimulate its ATPase activity. Pgp-Glo™ assay system (Promega, Madison, WI, USA) detects the compound’s effect on recombinant human P-gp in a cell membrane fraction. P-gp ATPase activity was measured using luminescent Pgp-Glo™ assay kit according to manufacturer’s instructions. Briefly, ATP was first incubated with P-gp; then the P-gp ATPase reaction was stopped, and the remaining unmetabolized ATP was detected as a luciferase-generated luminescent signal. Pgp-dependent decreases in luminescence reflect ATP consumption by P-gp; thus, the greater the decrease in signal, the higher the P-gp activity. […] Verapamil and sodium orthovanadate, supplied in the assay kit were used as positive controls. Verapamil is a P-gp substrate and competitive inhibitor, and sodium orthovanadate is a noncompetitive inhibitor of P-gp ATPase activity. The luminescence of samples treated with increasing concentrations of compound 5 (5 µM, 10 µM and 20 µM), compound 7 (100 nM, 250 nM and 500 nM) and compound 9 (100 nM, 250 nM and 500 nM), was measured with a luminometer microplate reader (CHAMELEON™V, Hidex, Turku, Finland).

IC50 [1] [nM]	IC50 ([3]; DOX + 2.5 µM compound 5, 72 h) [nM]	IC50 ([3]; DOX + 5 µM compound 5, 72 h) [nM]	IC50 ([3]; DOX + 10 µM compound 5, 72 h) [nM]	Effect on P-gp ATPase activity [5]	SMILES	Change in P-gp expression, DLD1 [2]	Change in P-gp expression, NCI-H460 [2]	Change in P-gp expression, NCI-H460/R ([2]; 10 µM 5, 500 nM 7, 500 nM 9, 10 nM TQ)	Relative Reversal ([3]; 2.5 µM compound 5)	Relative Reversal ([3]; 5 µM compound 5)	Relative Reversal ([3]; 10 µM compound 5)	Relative Reversal ([4]; 1 µM compound 5)	Relative Reversal ([4]; 2.5 µM compound 5)	Relative Reversal ([4]; 5 µM compound 5)
≥ 1000	1730 ± 30.9	864 ± 25.6	429 ± 13.3	smallest effect on ATPase activity	O=C1c2ccccc2C(=O)c2c(-c3ccccc3O)noc21 [Compound 5]	did not change P-gp expression	did not change P-gp expression	significantly increased P-gp expression	1.31	2.62	5.28	1.80	2.60	5.27
< 1000	–	–	–	potent dose-dependent inhibition	O=C1c2ccccc2C(=O)c2c(-c3ccncc3)noc21 [Compound 7]	did not change P-gp expression	did not change P-gp expression	–	–	–	–	–	–	–
< 1000	–	–	–	significant inhibition	O=C1c2ccccc2C(=O)c2c(-c3cccnc3)noc21 [Compound 9]	did not change P-gp expression	did not change P-gp expression	–	–	–	–	–	–	–

Source: PMC6770006, “Novel Heat Shock Protein 90 Inhibitors Suppress P-Glycoprotein Activity and Overcome Multidrug Resistance in Cancer Cells” (International Journal of Molecular Sciences, 2019)
